Test results taken from ChEMBL document CHEMBL5729175, “Pharmaceutical composition for preventing or treating acute myeloid leukemia or metastatic breast cancer” (2022).

Target: T1, Receptor-type tyrosine-protein kinase FLT3 (Homo sapiens, UniProt P36888)
T1 sequence (P36888 whole entry): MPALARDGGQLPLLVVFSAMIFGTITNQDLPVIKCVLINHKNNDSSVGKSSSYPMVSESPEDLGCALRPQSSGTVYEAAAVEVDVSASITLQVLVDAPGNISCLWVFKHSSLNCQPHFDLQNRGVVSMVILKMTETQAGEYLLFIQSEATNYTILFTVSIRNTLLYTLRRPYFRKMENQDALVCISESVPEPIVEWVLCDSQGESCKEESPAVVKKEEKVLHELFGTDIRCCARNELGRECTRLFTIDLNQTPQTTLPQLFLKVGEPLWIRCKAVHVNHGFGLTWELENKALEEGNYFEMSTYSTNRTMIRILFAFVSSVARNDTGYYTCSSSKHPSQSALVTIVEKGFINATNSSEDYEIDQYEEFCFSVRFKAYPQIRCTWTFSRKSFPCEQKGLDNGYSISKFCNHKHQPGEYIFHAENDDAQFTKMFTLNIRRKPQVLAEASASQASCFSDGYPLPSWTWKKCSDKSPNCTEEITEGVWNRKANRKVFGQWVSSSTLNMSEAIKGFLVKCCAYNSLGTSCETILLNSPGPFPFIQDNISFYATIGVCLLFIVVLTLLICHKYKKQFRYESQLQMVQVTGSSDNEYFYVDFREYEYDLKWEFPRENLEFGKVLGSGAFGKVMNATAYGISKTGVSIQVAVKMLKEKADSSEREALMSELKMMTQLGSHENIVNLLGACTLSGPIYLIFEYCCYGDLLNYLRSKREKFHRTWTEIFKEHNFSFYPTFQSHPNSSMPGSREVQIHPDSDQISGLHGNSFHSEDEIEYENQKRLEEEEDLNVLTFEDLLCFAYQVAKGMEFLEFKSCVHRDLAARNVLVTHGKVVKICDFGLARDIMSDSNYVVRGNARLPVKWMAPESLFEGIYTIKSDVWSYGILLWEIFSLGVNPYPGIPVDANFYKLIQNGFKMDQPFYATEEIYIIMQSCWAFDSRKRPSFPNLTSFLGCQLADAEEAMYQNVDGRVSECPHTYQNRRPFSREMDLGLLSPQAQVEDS
Test: In Vitro Kinase Assay: The inhibition of the FLT3 kinase activity was measured with homogeneous, time-resolved fluorescence (HTRF) assays. Recombinant proteins containing the FLT3 kinase domain were purchased from Invitrogen (Carlsbad, Calif., USA). Optimal enzyme, ATP, and substrate concentrations were established with the HTRF KinEASE kit (Cisbio, France) according to the manufacturer's instructions. The FLT3 enzymes were mixed with serially diluted compounds and peptide substrates in a kinase reaction buffer (50 mM HEPES (pH 7.0), 500 μM ATP, 0.1 mM sodium orthovanadate, 5 mM MgCl2, 1 mM DTT, 0.01% bovine serum albumin (BSA), and 0.02% NaN3). Ten microliters of the total volume of the kinase reaction were added to the wells of a 96-well assay plate. The kinase reactions were incubated for 30 min at 25° C. For the detection of the phospho-substrate, the Eu3b-Cryptate-conjugated mouse monoclonal antibody (PT66) and the streptavidin-XL665 (SA-XL) were added, and the reactions were then incubated for 1 hour at 25° C. The signal was measured on an Victor X5 multi-label reader (PerkinElmer, Waltham, Mass., USA).

IC50 [nM]	Structure (SMILES)
0.9	O=C1Nc2ccc(F)cc2/C1=C1/Nc2ccccc2/C1=N\OCCN1CCNCC1
7.42	CN1CCN(CCO/N=C2/C(=C3/C(=O)Nc4ccccc43)Nc3ccccc32)CC1
3.2	CN1CCN(CCO/N=C2/C(=C3/C(=O)Nc4ccc(F)cc43)Nc3ccccc32)CC1
51.9	O=C1Nc2ccccc2/C1=C1/Nc2ccccc2/C1=N\OCCN1CCCC1
35.5	O=C1Nc2ccc([N+](=O)[O-])cc2/C1=C1/Nc2ccc(F)cc2/C1=N\OCCN1CCNCC1
251	O=C1Nc2ccccc2/C1=C1/Nc2ccccc2/C1=N\OCCN1CCCCC1
35.5	CN1CCN(CCO/N=C2/C(=C3/C(=O)Nc4ccc([N+](=O)[O-])cc43)Nc3ccc(F)cc32)CC1
40.4	CN1CCN(CCO/N=C2/C(=C3/C(=O)Nc4ccc(F)cc43)Nc3ccc(F)cc32)CC1
26.2	O=C1Nc2ccc(F)cc2/C1=C1/Nc2ccc(F)cc2/C1=N\OCCN1CCNCC1
1.8	O=C1Nc2ccc(I)cc2/C1=C1/Nc2ccccc2/C1=N\OCCN1CCNCC1
2.4	CN1CCN(CCO/N=C2/C(=C3/C(=O)Nc4ccc(Cl)cc43)Nc3ccccc32)CC1
81.5	NC1CCN(CCO/N=C2/C(=C3/C(=O)Nc4ccc(F)cc43)Nc3ccc(F)cc32)CC1
253	COC(=O)c1ccc2c(c1)/C(=C1/Nc3ccccc3/C1=N\OCCN1CCOCC1)C(=O)N2
5.8	CN1CCN(CCO/N=C2/C(=C3/C(=O)Nc4ccc(I)cc43)Nc3ccccc32)CC1
1.3	O=C1Nc2ccc(Cl)cc2/C1=C1/Nc2ccccc2/C1=N\OCCN1CCNCC1
112	O=C1Nc2ccc([N+](=O)[O-])cc2/C1=C1/Nc2ccc(F)cc2/C1=N\OCCN1CCCC1
453	O=C1Nc2ccc([N+](=O)[O-])cc2/C1=C1/Nc2ccc(F)cc2/C1=N\OCCN1CCCCC1
1	O=C1Nc2ccc(Br)cc2/C1=C1/Nc2ccccc2/C1=N\OCCN1CCNCC1
